Activity calls are given as the source filed them.
Key:
[1] = biological target: Intestinal-type alkaline phosphatase (Homo sapiens, UniProt P09923); experiment: activation of human intestinal alkaline phosphatase – biochemical, dose response (AID 488873); type: functional
[2] = biological target: T1, Alkaline phosphatase, tissue-nonspecific isozyme (Homo sapiens, UniProt P05186); experiment: activation of tissue-nonspecific alkaline phosphatase – biochemical, TNAP isozyme, mouse IAP uHTS hits, selectivity assay for mouse IAP activator project, dose response (AID 488880); type: functional
T1 sequence (P05186 whole entry): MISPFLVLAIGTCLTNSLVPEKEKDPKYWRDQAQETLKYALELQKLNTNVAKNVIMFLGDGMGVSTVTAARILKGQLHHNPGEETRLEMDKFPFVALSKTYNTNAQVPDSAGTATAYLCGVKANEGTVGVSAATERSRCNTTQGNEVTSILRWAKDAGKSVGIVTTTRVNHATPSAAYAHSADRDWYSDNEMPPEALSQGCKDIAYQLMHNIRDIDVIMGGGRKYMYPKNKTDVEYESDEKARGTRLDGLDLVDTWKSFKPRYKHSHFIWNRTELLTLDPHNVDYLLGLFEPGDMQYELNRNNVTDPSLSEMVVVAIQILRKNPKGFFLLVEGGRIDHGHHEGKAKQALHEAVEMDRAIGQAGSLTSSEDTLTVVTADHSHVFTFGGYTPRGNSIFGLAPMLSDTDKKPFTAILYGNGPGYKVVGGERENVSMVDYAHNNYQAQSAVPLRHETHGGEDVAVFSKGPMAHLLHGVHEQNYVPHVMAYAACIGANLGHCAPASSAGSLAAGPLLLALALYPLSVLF

[3] = biological target: Procathepsin L (Homo sapiens, UniProt P07711)
[4] = biological target: Estrogen receptor beta (Homo sapiens, UniProt Q92731); experiment: blockers of SRC-3 recruitment to ERβ – biochemical, ELISA, streptavidin-HRP readout, orthogonal assay, confirmation (AID 1060)
[5] = biological target: Albumin (Bos taurus, UniProt P02769); experiment: Counterscreen for inhibitors of T-cell receptor (TCR)-CD3 interaction: Fluorescence-based biochemical high throughput dose response assay to identify inhibitors of T-cell receptor (TCR)-CD3 interaction using a TAMRA-labeled BSA probe.; type: functional
[6] = biological target: Tyrosine-protein kinase JAK3 (Homo sapiens, UniProt P52333); type: functional
[7] = biological target: Receptor-type tyrosine-protein kinase FLT3 (Homo sapiens, UniProt P36888); type: functional;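 also: FLT3 was tested as one member of a kinome-wide kinase panel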
[8] = biological target: Mitogen-activated protein kinase kinase kinase kinase 2 (Homo sapiens, UniProt Q12851); type: functional;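 also: measured as one member of a kinome-wide kinase panel, with MAP4K2 as the panel entry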
[9] = biological target: Homeodomain-interacting protein kinase 4 (Homo sapiens, UniProt Q8NE63); type: functional
[10] = biological target: Serine/threonine-protein kinase pim-3 (Homo sapiens, UniProt Q86V86); type: functional;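 also: value obtained as one member of a broad kinase panel profiling effort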
[11] = biological target: Ribosomal protein S6 kinase alpha-3 (Homo sapiens, UniProt P51812); type: functional;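 also: measured within a kinome-wide profiling panel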
[12] = biological target: Fibroblast growth factor receptor 3 (Homo sapiens, UniProt P22607); type: functional
[13] = biological target: Tyrosine-protein kinase SYK (Homo sapiens, UniProt P43405); type: functional
[14] = biological target: Mitogen-activated protein kinase 9 (Homo sapiens, UniProt P45984); type: functional;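 also: value from a kinome panel profiling assay, MAPK9 panel entry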
[15] = biological target: Tyrosine-protein kinase receptor UFO (Homo sapiens, UniProt P30530); type: functional
[16] = biological target: Rho-associated protein kinase 2 (Homo sapiens, UniProt O75116); type: functional
[17] = biological target: Tyrosine-protein kinase ABL1 (Homo sapiens, UniProt P00519); type: functional
[18] = biological target: Testis-specific serine/threonine-protein kinase 2 (Homo sapiens, UniProt Q96PF2); type: functional;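 also: part of the Navigating the Kinome panel, target entry STK22B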
[19] = biological target: Proto-oncogene tyrosine-protein kinase ROS (Homo sapiens, UniProt P08922); type: functional;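 also: ROS1 tested as one member of a kinome-wide kinase panel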
[20] = biological target: Serine/threonine-protein kinase D2 (Homo sapiens, UniProt Q9BZL6); type: functional;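 also: measured against PRKD2 as one member of a kinome-wide kinase profiling panel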
[21] = biological target: Interleukin-1 receptor-associated kinase 1 (Homo sapiens, UniProt P51617); type: functional;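 also: IRAK1 tested as one member of a kinome panel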
[22] = biological target: Tyrosine-protein kinase FRK (Homo sapiens, UniProt P42685); type: functional;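 also: FRK tested as one member of a kinome panel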
[23] = biological target: Proto-oncogene tyrosine-protein kinase Src (Homo sapiens, UniProt P12931); type: functional;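 also: SRC entry within a kinome-wide kinase profiling panel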
[24] = biological target: RAC-gamma serine/threonine-protein kinase (Homo sapiens, UniProt Q9Y243); type: functional
[25] = biological target: Glycogen synthase kinase-3 beta (Homo sapiens, UniProt P49841); type: functional;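 also: value comes from a broad kinome profiling panel, with GSK3B as the panel member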
[26] = biological target: Rho-associated protein kinase 1 (Homo sapiens, UniProt Q13464); type: functional;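 also: measured within a broad kinome-wide panel profiling many kinases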
[27] = biological target: Serine/threonine-protein kinase Nek4 (Homo sapiens, UniProt P51957); type: functional
[28] = biological target: Mitogen-activated protein kinase 12 (Homo sapiens, UniProt P53778); type: functional;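 also: measured as one member of a kinome-wide kinase profiling panel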
[29] = biological target: Hepatocyte growth factor receptor (Homo sapiens, UniProt P08581); type: functional;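 also: kinase panel profiling across the kinome, with MET as the panel member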
[30] = system: BJ; experiment: cells; type: functional, cell-based; settings: Homo sapiens
[31] = system: INS1; experiment: INS-1E survival protection against cytokine death – cell-based, luminescence, retest, dose response (AID 449756); type: functional; settings: Rattus norvegicus;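 also: cell death triggered by IL-1 beta plus TNF-alpha plus IFN-gamma mixture; protective hits raise ATP signal compared with cytokine alone wells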
[32] = biological target: C-C chemokine receptor type 6 (Homo sapiens, UniProt P51684); experiment: antagonism of CCR6 beta-arrestin recruitment – cell-based, luminescent beta-arrestin readout, dose response (AID 504728); type: functional
[33] = DRD fibroblast viability loss – cell-based, non-viral oncogenic, luminescence, dose response (AID 1934); type: functional; settings: Homo sapiens
[34] = system: BJ; experiment: BJ-TERT-LT-ST fibroblast viability loss – cell-based, RAS-independent, luminescence, dose response (AID 1935); type: functional; settings: Homo sapiens;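 also: BJ fibroblasts immortalized with TERT plus LT and ST oncogenes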
[35] = biological target: T2, Sentrin-specific protease 8 (Homo sapiens, UniProt Q96LD8); type: functional
T2 sequence (Q96LD8 whole entry): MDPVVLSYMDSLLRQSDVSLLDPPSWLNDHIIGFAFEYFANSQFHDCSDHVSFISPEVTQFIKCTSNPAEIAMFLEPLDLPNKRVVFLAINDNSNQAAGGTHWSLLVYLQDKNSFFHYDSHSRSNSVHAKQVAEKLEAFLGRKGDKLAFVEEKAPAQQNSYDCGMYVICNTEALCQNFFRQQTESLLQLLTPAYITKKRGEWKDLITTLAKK

Tyrosine-protein kinase receptor UFO, sequence (P30530 whole entry): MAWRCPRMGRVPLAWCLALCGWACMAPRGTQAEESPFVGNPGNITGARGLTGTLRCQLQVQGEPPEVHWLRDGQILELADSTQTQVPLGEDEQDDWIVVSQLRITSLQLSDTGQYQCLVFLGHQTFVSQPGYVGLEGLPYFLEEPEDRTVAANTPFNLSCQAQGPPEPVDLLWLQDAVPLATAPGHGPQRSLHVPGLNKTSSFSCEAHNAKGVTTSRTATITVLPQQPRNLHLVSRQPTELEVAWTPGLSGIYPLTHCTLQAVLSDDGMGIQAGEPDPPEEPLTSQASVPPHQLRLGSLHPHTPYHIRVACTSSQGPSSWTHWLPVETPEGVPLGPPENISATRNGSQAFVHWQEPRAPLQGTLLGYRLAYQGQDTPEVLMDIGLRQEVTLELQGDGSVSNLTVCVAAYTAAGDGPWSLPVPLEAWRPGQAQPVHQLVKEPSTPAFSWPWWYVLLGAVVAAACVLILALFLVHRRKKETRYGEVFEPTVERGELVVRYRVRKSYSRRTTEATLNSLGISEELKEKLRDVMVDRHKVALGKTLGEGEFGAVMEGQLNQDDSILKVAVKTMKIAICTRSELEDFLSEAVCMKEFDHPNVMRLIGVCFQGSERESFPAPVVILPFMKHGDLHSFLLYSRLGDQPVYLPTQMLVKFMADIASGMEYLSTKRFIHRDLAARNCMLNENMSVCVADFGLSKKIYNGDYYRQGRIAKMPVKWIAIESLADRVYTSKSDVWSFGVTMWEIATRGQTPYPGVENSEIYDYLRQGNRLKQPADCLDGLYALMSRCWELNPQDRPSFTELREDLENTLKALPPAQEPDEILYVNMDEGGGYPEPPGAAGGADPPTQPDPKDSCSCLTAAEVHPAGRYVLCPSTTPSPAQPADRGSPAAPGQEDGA
Serine/threonine-protein kinase D2, sequence (Q9BZL6 whole entry): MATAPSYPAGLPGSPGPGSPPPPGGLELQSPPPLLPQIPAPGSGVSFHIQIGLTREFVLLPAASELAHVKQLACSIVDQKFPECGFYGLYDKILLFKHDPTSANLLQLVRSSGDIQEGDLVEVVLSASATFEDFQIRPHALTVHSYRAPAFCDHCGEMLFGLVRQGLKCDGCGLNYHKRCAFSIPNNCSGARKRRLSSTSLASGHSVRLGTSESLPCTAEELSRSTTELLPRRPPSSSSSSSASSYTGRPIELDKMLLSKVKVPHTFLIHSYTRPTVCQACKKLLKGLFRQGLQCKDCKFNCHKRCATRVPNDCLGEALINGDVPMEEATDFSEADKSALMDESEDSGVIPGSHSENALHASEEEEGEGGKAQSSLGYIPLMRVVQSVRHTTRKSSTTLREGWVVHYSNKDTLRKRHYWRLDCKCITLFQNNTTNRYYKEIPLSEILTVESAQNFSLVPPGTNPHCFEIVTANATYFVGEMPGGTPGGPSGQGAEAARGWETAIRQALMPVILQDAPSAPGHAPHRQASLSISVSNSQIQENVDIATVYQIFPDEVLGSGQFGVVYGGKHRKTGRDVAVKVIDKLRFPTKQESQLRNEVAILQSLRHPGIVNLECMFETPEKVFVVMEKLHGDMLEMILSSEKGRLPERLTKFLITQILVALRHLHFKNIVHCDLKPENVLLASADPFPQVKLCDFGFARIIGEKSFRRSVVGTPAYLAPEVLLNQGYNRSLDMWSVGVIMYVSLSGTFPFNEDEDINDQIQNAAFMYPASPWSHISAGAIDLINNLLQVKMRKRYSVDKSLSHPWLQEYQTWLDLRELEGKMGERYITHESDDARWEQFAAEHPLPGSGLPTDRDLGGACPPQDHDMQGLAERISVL
Hepatocyte growth factor receptor, sequence (P08581 whole entry): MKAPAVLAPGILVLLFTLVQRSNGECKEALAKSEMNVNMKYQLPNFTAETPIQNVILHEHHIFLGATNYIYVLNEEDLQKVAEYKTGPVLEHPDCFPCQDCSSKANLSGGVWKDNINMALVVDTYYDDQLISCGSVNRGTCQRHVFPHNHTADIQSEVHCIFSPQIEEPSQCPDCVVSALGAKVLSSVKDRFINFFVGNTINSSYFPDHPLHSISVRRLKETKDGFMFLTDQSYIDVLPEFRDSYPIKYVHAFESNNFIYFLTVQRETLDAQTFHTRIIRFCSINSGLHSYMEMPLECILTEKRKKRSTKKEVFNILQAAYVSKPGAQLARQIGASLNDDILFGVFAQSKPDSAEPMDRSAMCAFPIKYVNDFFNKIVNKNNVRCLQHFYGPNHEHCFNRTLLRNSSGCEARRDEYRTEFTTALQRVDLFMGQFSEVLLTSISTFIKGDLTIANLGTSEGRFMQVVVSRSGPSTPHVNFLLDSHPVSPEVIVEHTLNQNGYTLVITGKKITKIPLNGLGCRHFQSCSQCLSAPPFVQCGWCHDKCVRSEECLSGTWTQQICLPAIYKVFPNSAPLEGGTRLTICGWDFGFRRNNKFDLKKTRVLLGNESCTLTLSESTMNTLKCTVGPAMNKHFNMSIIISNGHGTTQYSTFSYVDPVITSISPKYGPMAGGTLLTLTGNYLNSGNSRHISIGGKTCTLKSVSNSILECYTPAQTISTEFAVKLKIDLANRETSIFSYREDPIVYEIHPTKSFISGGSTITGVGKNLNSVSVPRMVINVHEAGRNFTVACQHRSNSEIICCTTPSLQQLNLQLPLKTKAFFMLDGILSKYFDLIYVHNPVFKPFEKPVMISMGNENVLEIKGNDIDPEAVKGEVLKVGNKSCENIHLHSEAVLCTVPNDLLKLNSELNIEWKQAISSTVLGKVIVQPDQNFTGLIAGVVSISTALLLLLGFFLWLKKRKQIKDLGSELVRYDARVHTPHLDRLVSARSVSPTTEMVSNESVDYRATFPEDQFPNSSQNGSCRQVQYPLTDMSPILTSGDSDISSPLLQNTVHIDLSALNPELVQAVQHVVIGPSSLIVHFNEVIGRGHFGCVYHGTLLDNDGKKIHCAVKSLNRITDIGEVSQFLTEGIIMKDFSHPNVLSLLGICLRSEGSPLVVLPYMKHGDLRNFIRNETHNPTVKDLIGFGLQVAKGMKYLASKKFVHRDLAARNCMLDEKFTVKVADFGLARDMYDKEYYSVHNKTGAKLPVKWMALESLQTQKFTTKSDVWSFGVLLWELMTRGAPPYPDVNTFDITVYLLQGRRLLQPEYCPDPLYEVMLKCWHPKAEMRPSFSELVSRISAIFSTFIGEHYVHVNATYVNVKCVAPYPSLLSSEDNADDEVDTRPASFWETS
Fibroblast growth factor receptor 3, sequence (P22607 whole entry): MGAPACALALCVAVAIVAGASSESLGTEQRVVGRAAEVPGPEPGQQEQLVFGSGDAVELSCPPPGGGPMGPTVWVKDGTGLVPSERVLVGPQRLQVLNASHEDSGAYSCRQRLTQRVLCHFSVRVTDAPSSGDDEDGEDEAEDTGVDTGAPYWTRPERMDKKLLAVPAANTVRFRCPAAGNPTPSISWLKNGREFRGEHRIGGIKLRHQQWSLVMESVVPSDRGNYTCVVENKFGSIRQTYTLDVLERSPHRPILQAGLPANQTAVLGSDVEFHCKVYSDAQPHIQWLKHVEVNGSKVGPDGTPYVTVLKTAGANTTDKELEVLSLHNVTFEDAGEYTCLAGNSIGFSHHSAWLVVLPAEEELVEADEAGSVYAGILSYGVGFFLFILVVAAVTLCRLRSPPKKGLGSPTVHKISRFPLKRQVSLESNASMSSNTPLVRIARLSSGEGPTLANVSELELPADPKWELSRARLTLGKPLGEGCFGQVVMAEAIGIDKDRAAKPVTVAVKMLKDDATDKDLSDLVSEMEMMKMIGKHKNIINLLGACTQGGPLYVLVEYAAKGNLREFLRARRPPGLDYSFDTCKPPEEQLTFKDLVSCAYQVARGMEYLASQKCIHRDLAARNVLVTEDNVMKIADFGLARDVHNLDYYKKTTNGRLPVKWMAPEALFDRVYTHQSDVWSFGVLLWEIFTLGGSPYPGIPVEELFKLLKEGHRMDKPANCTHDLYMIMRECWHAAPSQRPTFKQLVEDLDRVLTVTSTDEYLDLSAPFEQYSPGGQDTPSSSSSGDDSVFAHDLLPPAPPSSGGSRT
Tyrosine-protein kinase FRK, sequence (P42685 whole entry): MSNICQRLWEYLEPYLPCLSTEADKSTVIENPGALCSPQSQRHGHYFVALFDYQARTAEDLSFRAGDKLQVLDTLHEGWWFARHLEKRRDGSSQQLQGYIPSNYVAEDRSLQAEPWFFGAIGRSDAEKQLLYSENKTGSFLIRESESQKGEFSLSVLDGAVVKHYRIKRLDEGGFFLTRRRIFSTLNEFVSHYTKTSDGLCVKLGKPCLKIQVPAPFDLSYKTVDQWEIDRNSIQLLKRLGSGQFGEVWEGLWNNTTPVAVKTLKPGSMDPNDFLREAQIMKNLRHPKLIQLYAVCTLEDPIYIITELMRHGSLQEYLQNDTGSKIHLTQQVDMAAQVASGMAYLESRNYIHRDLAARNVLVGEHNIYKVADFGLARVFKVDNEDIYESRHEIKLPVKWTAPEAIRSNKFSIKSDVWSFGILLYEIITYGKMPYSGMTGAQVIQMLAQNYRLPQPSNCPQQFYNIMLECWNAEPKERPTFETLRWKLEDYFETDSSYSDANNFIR
C-C chemokine receptor type 6, sequence (P51684 whole entry): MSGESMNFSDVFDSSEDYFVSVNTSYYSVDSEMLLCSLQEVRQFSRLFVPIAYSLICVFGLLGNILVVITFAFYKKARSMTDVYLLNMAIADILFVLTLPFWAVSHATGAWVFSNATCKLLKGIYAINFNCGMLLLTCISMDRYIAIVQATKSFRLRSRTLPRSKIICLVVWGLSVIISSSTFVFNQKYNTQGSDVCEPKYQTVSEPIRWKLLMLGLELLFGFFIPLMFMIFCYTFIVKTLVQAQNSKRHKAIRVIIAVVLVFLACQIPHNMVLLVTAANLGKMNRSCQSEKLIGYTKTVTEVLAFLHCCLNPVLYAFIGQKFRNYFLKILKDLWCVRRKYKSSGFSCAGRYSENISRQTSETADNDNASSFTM

In the case of `Oc1ccc(-c2cn3c(n2)SCC3)cc1O`, the EC50 [1] is reported as 22100 nM (active), the EC50 [2] is reported as 70900 nM (active) and the IC50 [3] is reported as > 59600 nM (not active). The IC50 [4] was 10700 nM (not active) and the IC50 [5] was > 94100 nM (inactive).
With `O=C1Nc2ccc3ncsc3c2C1=CNc1ccc(S(=O)(=O)Nc2ccccn2)cc1` the Ki [6] was 25.1 nM (active), the Ki [7] was 3.16 nM (active) and the Ki [8] was 7.94 nM (active). The Ki [9] was 2000 nM (active), the Ki [10] was 1260 nM (active) and the Ki [11] was 39.8 nM (active). For the same compound, the Ki [12] was 12.6 nM (active), the Ki [13] was > 1580 nM (inactive) and the Ki [14] was 126 nM (active). For the same compound, the Ki [15] was 20 nM (active), the Ki [16] was 50.1 nM (active) and the Ki [17] was > 631 nM (inactive). For the same compound, the Ki [18] was > 1580 nM (inactive), the Ki [19] was > 2000 nM (inactive) and the Ki [20] was 50.1 nM (active). The Ki [21] was 20 nM (active), the Ki [22] was 31.6 nM (active) and the Ki [23] was 158 nM (active). The Ki [24] was > 10000 nM (inactive), the Ki [25] was 3.16 nM (active) and the Ki [26] was 316 nM (active). For the same compound, the Ki [27] was 501 nM (active), the Ki [28] was 3160 nM (active) and the Ki [29] was 200 nM (active).
In the case of `Cc1ccc(NC2=C/C(=N\S(=O)(=O)c3cccs3)c3ccccc3C2=O)c(C)c1`, the EC50 [30] is reported as 4150 nM (active), the AC50 [31] is reported as 404 nM (active) and the IC50 [32] is reported as > 66600 nM (inactive). For the same compound, the EC50 [33] was 5140 nM (active) and the EC50 [34] was 4420 nM (inconclusive).
For `COc1ccc(/C=N/NC(=O)c2nn(-c3ccccc3)c(=O)c3c(N)scc23)cc1`, the IC50 [35] was 346 nM (active).

— ChEMBL document CHEMBL1201862, “PubChem BioAssay data set” (2004)
